Assay results taken from patent publication EP0133795B1 (THE McLEAN HOSPITAL CORPORATION, priority 1983, dated 1985).

Key:
[1] = 1 hr after administration; TLC
[2] = Comparative brain/liver uptake of 14C-labeled compounds (Brain Penetration Index)
[3] = system: CAI pyramidal cells; type: cell-based, Sprague-Dawley rats
Description: Transverse slices of hippocampus (350-375 µm thick) were prepared from Sprague-Dawley rats (200-300 g) and transferred onto a nylon net fixed over a 1.5 ml superfusion chamber. The slices were maintained at 32-33°C in a humidified atmosphere of 95%/5% 02/C02. The standard medium consisted of (in mM): NaCl, 125; KCI, 3.5; CaC12,2; MgS04, 1.5; NaH2PO4, 1; NaHC03, 24; and glucose, 10. Low chloride medium was prepared by substituting sodium isethionate for sodium chloride.
Extracellular potentials were recorded with NaCI-fitted micropipettes, and stimulus pulses were applied through bipolar platinum wire electrodes. The various drugs were dissolved in fresh medium (without glucose and phosphate) and applied to the surface of the tissue by pressure ejection from a micropipette, Sakai, Swartz and Woody, (1979).
The inhibitory effectiveness of various compounds was investigated by measuring their ability to suppress the extracellular population spike recorded from the hippocampal CAI pyramidal layer and elicited by stimulation of stratum radiatum axons. The amplitude of this monosynaptic population spike is essentially proportional to the number of pyramidal cells discharging in response to a stimulus volley, Andersen, Bliss and Skrede, (1971).
The various compounds were applied as droplets to the pyramidal layer approximately 75 µm from the recording electrode. The volume of a single drug application was about 300 picoliters. […] The volume ejected from each pipette was calibrated prior to use by measuring the diameter of the ejected droplet and adjusting the duration of the pressure pulse (usually 100-500 msec) until a standard diameter was reached. A constant droplet volume was used throughout the experiments. Where dose-response information was required, several pipettes with different drug concentrations were used.

[4] = system: bicuculline-induced epileptic seizures; test: Delay of onset of bicuculline-induced seizures (anticonvulsant activity); type: in vivo, mouse; conditions: for Onset of seizures: % Saline Control / Survival Time: % Saline Control: 24 hr pretreatment
[5] = 50 μmol/kg s.c., 5 min, mice, mean ± S.E.M. (n = 3)
[6] = 16 mg/kg, bicuculline 0.3 mg/kg
[7] = 30 mg/kg, bicuculline 0.3 mg/kg
[8] = 84 mg/kg, bicuculline 0.3 mg/kg, mean ± SEM, n ≥ 6

(3-Cholesteryl)-gamma-Aminobutyrate [Compound 6]
labeled compound present as intact molecules in brain homogenates [1]: about 70% | (BRAIN) [2, 5]: 0.17 ± 0.03 nmol/g | (LIVER) [2, 5]: 0.69 ± .08 nmol/g | BPI [2, 5]: 25 ± 7% | (BRAIN) ([2]; 50 μmol/kg s.c., 15 min, mice): 0.67 nmol/g | (LIVER) ([2]; 50 μmol/kg s.c., 15 min, mice): 1.19 nmol/g | BPI ([2]; 50 μmol/kg s.c., 15 min, mice): 56% | (BRAIN) ([2]; 50 μmol/kg s.c., 60 min, mice): 0.79 nmol/g | (LIVER) ([2]; 50 μmol/kg s.c., 60 min, mice): 0.92 nmol/g | BPI ([2]; 50 μmol/kg s.c., 60 min, mice): 86% | (BRAIN) ([2]; 50 μmol/kg s.c., 180 min, mice): 0.60 nmol/g | (LIVER) ([2]; 50 μmol/kg s.c., 180 min, mice): 1.89 nmol/g | BPI ([2]; 50 μmol/kg s.c., 180 min, mice): 32% | increase of 5-min BPI over GABA ([2]; 5 min after s.c. injection, relative to GABA): 25 fold | BPI ([2]; Table IX summary, 5-min Brain Penetration Index): 25 | accumulation of radioactivity in brain persisted post-injection ([2]; s.c., mice): 45 to 60 min | duration of the effect relative to a similar dose of GABA [3]: roughly an order of magnitude longer | effect after incubation of slices in PMSF (0.5 mM) for about 45 min [3]: significantly reduced | effect with picrotoxin (10 µM) in the medium or low chloride medium [3]: essentially eliminate the C-G effect | recovery of the population spike amplitude to 90% of the pre-droplet control value ([3]; after an approximately half-maximal dose): about 14 min | inhibition of the evoked population spike ([3]; droplets applied to the CAI pyramidal layer): dose-dependent inhibition | Onset of seizures: % Saline Control ([4]; 3 mg/kg, bicuculline 0.3 mg/kg): 120 ± 6 % Saline Control | Survival Time: % Saline Control ([4]; 3 mg/kg, bicuculline 0.3 mg/kg): 95 ± 15 % Saline Control | Onset of seizures: % Saline Control [4, 6]: 129 ± 4 % Saline Control | Survival Time: % Saline Control [4, 6]: 101 ± 20 % Saline Control | Onset of seizures: % Saline Control [4, 7]: 130 ± 8 % Saline Control | Survival Time: % Saline Control [4, 7]: 104 ± 18 % Saline Control | Onset of seizures: % Saline Control [4, 8]: 137 ± 7 % Saline Control | Survival Time: % Saline Control [4, 8]: 109 ± 9 % Saline Control | delay of onset of seizures ([4]; 24 hr after i.p. injection of 30 mg/kg, bicuculline 0.3 mg/kg): 30% | In Vivo Delay of Time of Onset of Bicuculline-induced seizures ([4]; graded 0-5): 5
